Patent US11096952B2, “Chemicals and methods to prevent and treat TGF-beta mediated activation of fibroblasts to reduce and treat cancer and fibrosis” (Board of Supervisors of Louisiana State University and …, priority 2016, dated 2021)

Tested on: TGF-β-induced fibronectin
Assay: High content imaging (Cellomics) screen for inhibitors of fibronectin induction by TGF-beta in WPMY-1 cells
Type: cell-based, human
Conditions: WPMY-1, 0-100 uM, TGF-β 24 hour
Procedure: Inhibitors of CAF Differentiation. A. WPMY-1 cells were plated into each well of 4-chamber slice (for IF), or (C) in a 24 well plate (for western blot analysis). After cell attachment, vehicle or 5 ng/ml TGF-β was added into each well and incubated for 24 h in a 37° C. in a humidified incubator containing 5% CO2. For fluorescence detection (A), cells were fixed and stained with antibody detecting fibronectin and/or stained with DAPI to detect the nuclei. Protein was extracted with boiling Lamaelli buffer for WB (C) and blots were probed with anti-fibronectin or anti-tubulin antibodies. Fibronectin fluorescence (D and E) was measured in the presence or absence of TGF-β in 8 well replicates as follows. Cells were conditioned in serum-free DMEM for 48 hr prior to the addition of TGF-β. Images were acquired using a Cellomics platform with a mask shown in the schematic of (B). The mean of the total fluorescence intensity in each well was calculated from 300 cells per image field and up to 15 fields from each well for fibronectin. […]
FIGS. 4A-4H: Dose response for identified hits. As shown in the four panels of FIG. 4A, fibronectin fluorescence was measured from images acquired following a Cellomics scan using WPMY-1 cells with concentrations of hits over a range of 0-100 uM. […] Results were expressed as percent inhibition caused by cells treated with TGF-β alone and without testing compound, which was considered as 100%. […]
FIGS. 14-15 show Table I—Prestwick Library and Table II—NIH Library chemicals respectively. […] A “hit” was defined as a compound causing at least 50% reduction of “Mean_RingTotal Intensity”, which is the fluorescence intensity within the defined ring (see FIG. 2) surrounding nucleus of each cell, summed for 300 cells per image and 15 fields per image. The solvent, 0.1% Dimethyl Sulfoxide (DMSO), with and without TGF-beta served as an internal control on each plate to normalize day-to-day and plate-to-plate variation with DMSO alone as low fluorescence (0%) and TGF-β treated as maximal fluorescence (100%). […]

C[C@H]1O[C@@H](O[C@H]2[C@@H](O)C[C@H](O[C@H]3[C@@H](O)C[C@H](O[C@H]4CC[C@@]5(C)[C@H](CC[C@@H]6[C@@H]5C[C@@H](O)[C@]5(C)[C@@H](C7=CC(=O)OC7)CC[C@]65O)C4)O[C@@H]3C)O[C@@H]2C)C[C@H](O)[C@@H]1O [digoxin]
IC50 / potency for inhibition of TGF-β-induced fibronectin (dose response): very low IC50
